Key:
[1] = comparison surfactants, conditions not given; cited from earlier work
[2] = system: Escherichia coli ATCC 8739, Pseudomonas aeruginosa ATCC 15442, Staphylococcus aureus ATCC 6538, Propionibacterium acnes MTCC 1951, Candida albicans ATCC 10231 …; test: Preservative challenge test according to PCPC protocol; type: cell-based, bacteria, yeast and mold
Excerpt: The preservative efficacy of the compounds of Formula I has been tested in surfactant formulations typically containing anionic surfactant with pH ranging for 4 to 8.0. The personal care and home care formulations (body wash, shampoo, skin-cream and dish wash) are preserved with 1.0 to 2.0% of compounds of Formula I. The details of formulations are given in Examples 4, 5, 6, 7, 8, 9, and 10. The above formulations pass the challenge test performed according to PCPC protocol using Escherichia coli ATCC 8739, Pseudomonas aeruginosa ATCC 15442 (Gram −ve bacteria), Staphylococcus aureus ATCC 6538, Propionibacterium acnes MTCC 1951, (Gram +ve) Candida albicans ATCC 10231, Malassezia furfur MTCC 1374 (yeast) and Aspergillus niger ATCC 16404 (mold) The formulations pass the challenge test criteria for both bacteria and fungi.
The above formulations (Example 4, 5, 6, 7, 8, 9 & 10) pass the challenge test performed according to PCPC protocol using Escherichia coli ATCC 8739, Pseudomonas aeruginosa ATCC 15442 (Gram −ve bacteria), Staphylococcus aureus ATCC 6538, Propionibacterium acnes MTCC 1951, (Gram +ve) Candida albicans ATCC 10231, Malassezia furfur MTCC 1374 (yeast) and Aspergillus niger ATCC 16404 (mold).

Compound: cocoamidopropyl betaine
- CMC [1]: 0.05 mmol/L

Compound: CCCCCCCCCCCC[N+](CCC(=O)OC)(CCC(=O)OC)Cc1ccccc1.[Cl-] [N-Lauryl, N,N-Dimethyldipropionate Benzyl Ammonium Chloride]
- MIC (%) (M furfur): 0.5%
- MIC (%) (E coli): 0.3%
- MIC (%) (Pseudomonas sp): 0.5%
- MIC (%) (S aureus): 0.5%
- MIC (%) (P acne): 0.4%
- MIC (%) (Aspergillus niger): 0.2%
- MIC (%) (C. albicans): 0.4%

Compound: N-Alkyl, N,N-dimethyl, N-benzyl ammonium chloride [Benzalkonium chloride]
- challenge test ([2]; 10% SLES preserved with 1% of the substance, PCPC protocol): failed to pass
- antimicrobial activity in the presence of anionic surfactant ([2]; used at 10000 ppm): does not exhibit any antimicrobial activity

Compound: CCCCCCCCCCCCOS(=O)(=O)[O-].[Na+] [sodium lauryl sulphate]
- CMC [1]: 8.0 mmol/L

Reference: US10259774B1, “Antimicrobials for preservation of home and personal care products” (GALAXY SURFACTANTS LTD., priority 2018, dated 2019)
